ChEMBL document CHEMBL1159126, “Salicylanilide carbamates: antitubercular agents active against multidrug-resistant Mycobacterium tuberculosis strains” (Bioorg Med Chem, 2010)
In brackets after ≈: the same amount, converted by molar mass.

Legend:
Mycobacterium kansasii [1] = assay: Antimycobacterial activity against Mycobacterium kansasii 6509/96 after 21 days by micromethod; assay type: functional; conditions: 6509/96, 504 h
Mycobacterium kansasii [2] = assay: Antimycobacterial activity against Mycobacterium kansasii 6509/96 after 14 days by micromethod; assay type: functional; conditions: 6509/96, 336 h
[3] = system: Mycobacterium tuberculosis; assay: microbe, parasite or virus in culture; conditions: 331/88, 336 h
Description: Antimycobacterial activity against Mycobacterium tuberculosis 331/88 after 14 days by micromethod

[4] = Partition coefficient, log P of the compound; assay type: physicochemical; conditions: octanol/water
Mycobacterium kansasii [5] = assay: Antimycobacterial activity against Mycobacterium kansasii 235/80 after 14 days by micromethod; assay type: functional; conditions: 235/80, 336 h
Mycobacterium avium [6] = assay: Antimycobacterial activity against Mycobacterium avium 330/88 after 21 days by micromethod; assay type: functional; conditions: 330/88, 504 h
[7] = system: Mycobacterium tuberculosis; assay: microbe, parasite or virus in culture; conditions: 331/88, 504 h
Description: Antimycobacterial activity against Mycobacterium tuberculosis 331/88 after 21 days by micromethod

Mycobacterium avium [8] = assay: Antimycobacterial activity against Mycobacterium avium 330/88 after 14 days by micromethod; assay type: functional; conditions: 330/88, 336 h
Mycobacterium kansasii [9] = assay: Antimycobacterial activity against Mycobacterium kansasii 235/80 after 21 days by micromethod; assay type: functional; conditions: 235/80, 504 h
[10] = Toxicity against human HCT8 cells after 72 hrs by XTT assay; assay type: cell-based, HCT-8

| SMILES | MIC (Mycobacterium kansasii [1]) [µM] | MIC (Mycobacterium kansasii [2]) [µM] | MIC [3] [µM] | logP [4] | MIC (Mycobacterium kansasii [5]) [µM] | MIC (Mycobacterium avium [6]) [µM] | MIC [7] [µM] | MIC (Mycobacterium avium [8]) [µM] | MIC (Mycobacterium kansasii [9]) [µM] | EC50 at 72 h [10] [µM] |
| --- | --- | --- | --- | --- | --- | --- | --- | --- | --- | --- |
| CCCCCCCCCNC(=O)Oc1ccc(Cl)cc1C(=O)Nc1ccc(Cl)cc1 | 4 (≈ 1.81 µg/mL) | 4 (≈ 1.81 µg/mL) | 2 (≈ 0.903 µg/mL) | 6.78 | 4 (≈ 1.81 µg/mL) | 16 (≈ 7.22 µg/mL) | 2 (≈ 0.903 µg/mL) | 8 (≈ 3.61 µg/mL) | 4 (≈ 1.81 µg/mL) | – |
| CCCCCCCCCCNC(=O)Oc1ccc(Cl)cc1C(=O)Nc1ccc(Cl)cc1 | 8 (≈ 3.72 µg/mL) | 8 (≈ 3.72 µg/mL) | 2 (≈ 0.931 µg/mL) | 7.19 | 8 (≈ 3.72 µg/mL) | 8 (≈ 3.72 µg/mL) | 2 (≈ 0.931 µg/mL) | 8 (≈ 3.72 µg/mL) | 8 (≈ 3.72 µg/mL) | – |
| CCCCCCCNC(=O)Oc1ccc(Cl)cc1C(=O)Nc1ccc(Cl)cc1 | 4 (≈ 1.69 µg/mL) | 4 (≈ 1.69 µg/mL) | 2 (≈ 0.847 µg/mL) | 5.94 | 8 (≈ 3.39 µg/mL) | 8 (≈ 3.39 µg/mL) | 2 (≈ 0.847 µg/mL) | 8 (≈ 3.39 µg/mL) | 8 (≈ 3.39 µg/mL) | – |
| CCCCCCCNC(=O)Oc1ccc(Cl)cc1C(=O)Nc1cccc(Cl)c1 | 8 (≈ 3.39 µg/mL) | 8 (≈ 3.39 µg/mL) | 1 (≈ 0.423 µg/mL) | 5.94 | 4 (≈ 1.69 µg/mL) | 8 (≈ 3.39 µg/mL) | 2 (≈ 0.847 µg/mL) | 8 (≈ 3.39 µg/mL) | 8 (≈ 3.39 µg/mL) | – |
| CCCCCCCNC(=O)Oc1ccc(Cl)cc1C(=O)Nc1ccc(Cl)c(Cl)c1 | 4 (≈ 1.83 µg/mL) | 2 (≈ 0.916 µg/mL) | 0.5 (≈ 0.229 µg/mL) | 6.5 | 2 (≈ 0.916 µg/mL) | 8 (≈ 3.66 µg/mL) | 1 (≈ 0.458 µg/mL) | 4 (≈ 1.83 µg/mL) | 2 (≈ 0.916 µg/mL) | 43.4 |
| CCCCCCCCNC(=O)Oc1ccc(Cl)cc1C(=O)Nc1ccc(Cl)c(Cl)c1 | 4 (≈ 1.89 µg/mL) | 2 (≈ 0.944 µg/mL) | 0.5 (≈ 0.236 µg/mL) | 6.92 | 2 (≈ 0.944 µg/mL) | 8 (≈ 3.77 µg/mL) | 1 (≈ 0.472 µg/mL) | 4 (≈ 1.89 µg/mL) | 4 (≈ 1.89 µg/mL) | 48.5 |
| CCCCCCCCCNC(=O)Oc1ccc(Cl)cc1C(=O)Nc1ccc(Cl)c(Cl)c1 | 4 (≈ 1.94 µg/mL) | 4 (≈ 1.94 µg/mL) | 2 (≈ 0.972 µg/mL) | 7.34 | 8 (≈ 3.89 µg/mL) | 8 (≈ 3.89 µg/mL) | 2 (≈ 0.972 µg/mL) | 8 (≈ 3.89 µg/mL) | 8 (≈ 3.89 µg/mL) | – |
| CCCCCCCCNC(=O)Oc1ccc(Cl)cc1C(=O)Nc1ccc(Cl)cc1 | 4 (≈ 1.75 µg/mL) | 4 (≈ 1.75 µg/mL) | 2 (≈ 0.875 µg/mL) | 6.36 | 8 (≈ 3.5 µg/mL) | 8 (≈ 3.5 µg/mL) | 2 (≈ 0.875 µg/mL) | 8 (≈ 3.5 µg/mL) | 8 (≈ 3.5 µg/mL) | – |
| CCCCCCCCCCCNC(=O)Oc1ccc(Cl)cc1C(=O)Nc1cccc(Cl)c1 | 8 (≈ 3.84 µg/mL) | 8 (≈ 3.84 µg/mL) | 2 (≈ 0.959 µg/mL) | 7.61 | 8 (≈ 3.84 µg/mL) | 8 (≈ 3.84 µg/mL) | 2 (≈ 0.959 µg/mL) | 8 (≈ 3.84 µg/mL) | 8 (≈ 3.84 µg/mL) | – |
| CCCCCCCCCCNC(=O)Oc1ccc(Cl)cc1C(=O)Nc1ccc(Cl)c(Cl)c1 | 4 (≈ 2 µg/mL) | 2 (≈ 1 µg/mL) | 2 (≈ 1 µg/mL) | 7.77 | 4 (≈ 2 µg/mL) | 8 (≈ 4 µg/mL) | 2 (≈ 1 µg/mL) | 8 (≈ 4 µg/mL) | 4 (≈ 2 µg/mL) | – |
| CCCCNC(=O)Oc1ccc(Cl)cc1C(=O)Nc1ccc(Cl)cc1 | 4 (≈ 1.53 µg/mL) | 2 (≈ 0.763 µg/mL) | 2 (≈ 0.763 µg/mL) | 4.69 | 4 (≈ 1.53 µg/mL) | 8 (≈ 3.05 µg/mL) | 2 (≈ 0.763 µg/mL) | 4 (≈ 1.53 µg/mL) | 4 (≈ 1.53 µg/mL) | – |
| CCCCCCNC(=O)Oc1ccc(Cl)cc1C(=O)Nc1cccc(Cl)c1 | 4 (≈ 1.64 µg/mL) | 4 (≈ 1.64 µg/mL) | 0.5 (≈ 0.205 µg/mL) | 5.53 | 4 (≈ 1.64 µg/mL) | 8 (≈ 3.27 µg/mL) | 1 (≈ 0.409 µg/mL) | 8 (≈ 3.27 µg/mL) | 4 (≈ 1.64 µg/mL) | 14.9 |
| CCCCCCCCNC(=O)Oc1ccc(Cl)cc1C(=O)Nc1cccc(Cl)c1 | 8 (≈ 3.5 µg/mL) | 4 (≈ 1.75 µg/mL) | 2 (≈ 0.875 µg/mL) | 6.36 | 8 (≈ 3.5 µg/mL) | 4 (≈ 1.75 µg/mL) | 2 (≈ 0.875 µg/mL) | 4 (≈ 1.75 µg/mL) | 8 (≈ 3.5 µg/mL) | – |
| NNC(=O)c1ccncc1 [ISONIAZID] | 4 (≈ 0.549 µg/mL) | 4 (≈ 0.549 µg/mL) | 0.5 (≈ 0.0686 µg/mL) | – | > 250 | > 250 | 0.5 (≈ 0.0686 µg/mL) | > 250 | > 250 | > 100 |
